From patent US20050096370A1, “Method for inhibiting tumor angiogenesis and tumor growth” (Bizbiotech Co., Ltd., priority 2003, published 2005)

How the values were obtained:
[1] = tested on: natural killer (NK) cell activity; experiment: NK cell activity of splenic lymphocytes incubated with YC-1 in vitro (51Cr release from YAC-1 cells); type: cell-based, nude mice; details: 24 hours
Experimental: (§1) The lymphocytes were then incubated at the indicated effectontarget cell (E:T) ratios with ^51Cr-labeled YAC-1 cells (1×10^4). After 4 hours, the amount of radioactivity in the culture supernatants was measured with a gamma counter. […] Splenic lymphocytes were then isolated and tested for NK cell activity. The result is expressed as the mean of four separate experiments with 95% confidence intervals.
The quality of the extracted RNAs was verified by identifying the 18S ribosomal RNA (rRNA) on a 1% denaturing agarose gel. VEGF, aldolase A and enolase 1 mRNA levels were also lower in YC-1-treated tumors than in vehicle-treated tumors one experiment. Results are expressed as the mean and 95% confidence intervals of 4 separate experiments.
(§2) Splenic lymphocytes were isolated from each mouse and tested immediately for NK cell activity. The spontaneous release of ^51Cr from YAC-1 cells was usually lower than 10% of the total ^51Cr loaded. NK cell activity was calculated as follows: {(experimental release−spontaneous release)/(total release−spontaneous release)}×100. Each assay was repeated three times and the average value is the result from one experiment. Results are expressed as the mean and 95% confidence intervals of 4 separate experiments.

[2] = tested on: natural killer (NK) cell activity; experiment: NK cell activity of splenic lymphocytes from treated mice (51Cr release from YAC-1 cells); type: in vivo, nude mice; details: 30 μg/g daily i.p. for 2 weeks
Experimental: as §1, §2

[3] = tested on: VEGF; experiment: VEGF protein ELISA in Hep3B cell-conditioned medium; type: cell-based, human; details: Hep3B cells, hypoxic, 24 hours, versus untreated hypoxic cells (P<0.001)
Experimental: FIG. 3 is a histogram showing the amount of VEGF protein. […] The VEGF concentrations were quantified by comparison with a series of VEGF standard samples included in the assay kit. VEGF level in each experiment was measured twice. Bars represent the mean of four separate experiments with the 95% confidence interval. * denotes statistical significance compared to control supernatants from cells cultured under normoxic conditions (P<0.001); # denotes statistical significance compared to control supernatants from cells cultured under hypoxic conditions (P<0.00 1).
Immunoblotting was used to detect HIF-1 protein in cultured cells, as described (Chun et al., Biochem Pharmacol 2001 61:947-954). […] To quantify mRNAs for HIF-1α and HIF-1-regulated genes, we performed a highly sensitive, semi-quantitative reverse transcription-polymerase chain reaction (RT PCR), as described previously (Chun et al., J Cell Sci 2001 114:4051-4061). […] P-actin mRNA was measured as a PCR control. […] To assess whether the VEGF mRNA levels affected levels of VEGF protein secreted into the medium, we measured VEGF protein levels in Hep3B cell-conditioned medium. […] VEGF levels in the conditioned media were quantified by using the Quantikine human VEGF Immunoassay kit (R&D Systems, Minneapolis, Minn.) according to the manufacturer's recommended protocol. […]

OCc1ccc(-c2nn(Cc3ccccc3)c3ccccc23)o1 [YC-1, 3-(5′-hydroxymethyl-2′-furyl)-1-benzylindazole]
cytolytic activity against YAC-1 cells versus lymphocytes incubated without YC-1 [1]: comparable | cytolytic activity versus vehicle-treated mice [2]: comparable | VEGF protein level in medium [3]: decreased in a dose-dependent manner
